Like-named read-outs stand apart in the source and are kept apart here.
Key:
[1] = target: T1, HDAC1 (Homo sapiens, UniProt Q13547); assay: HDAC enzyme assay, HDAC1 (fluorescence, tripeptide substrate/trypsin); type: biochemical; details: 3.3 ng/ml enzyme, 16 μM substrate, 10 min preincubation
T1 construct: purchased BPS Biosciences
Experimental: (§1) Compounds for testing were diluted in […] to 50 fold the final concentration and a ten-point three-fold dilution series was made. The compounds were diluted in assay buffer (50 mM HEPES, pH 7.4, 100 mM KCl, 0.001% Tween-20, 0.05% BSA, 20 μM TCEP) to 6-fold their final concentration. The HDAC enzymes (purchased from BPS Biosciences) were diluted to 1.5-fold their final concentration in assay buffer. The tripeptide substrate and trypsin at 0.05 μM final concentration were diluted in assay buffer at 6-fold their final concentration. The final enzyme concentrations used in these assays were 3.3 ng/ml (HDAC1), 0.2 ng/ml (HDAC2) and 0.08 ng/ml (HDAC3). The final substrate concentrations used were 16 μM (HDAC1), 10 μM (HDAC2) and 17 μM (HDAC3).
(§2) Five μl of compounds and 20 μl of enzyme were added to wells of a black, opaque 384 well plate in duplicate. Enzyme and compound were incubated together at room temperature for 10 minutes. Five μl of substrate was added to each well, the plate was shaken for 60 seconds and placed into a Victor 2 microtiter plate reader. The development of fluorescence was monitored for 60 min and the linear rate of the reaction was calculated. The IC50 was determined using Graph Pad Prism by a four parameter curve fit.

[2] = target: T2, HDAC2 (Homo sapiens, UniProt Q92769); assay: HDAC enzyme assay, HDAC2 (fluorescence, tripeptide substrate/trypsin); type: biochemical; details: 0.2 ng/ml enzyme, 10 μM substrate, 10 min preincubation
T2 construct: purchased BPS Biosciences
T2 sequence (Q92769 whole entry): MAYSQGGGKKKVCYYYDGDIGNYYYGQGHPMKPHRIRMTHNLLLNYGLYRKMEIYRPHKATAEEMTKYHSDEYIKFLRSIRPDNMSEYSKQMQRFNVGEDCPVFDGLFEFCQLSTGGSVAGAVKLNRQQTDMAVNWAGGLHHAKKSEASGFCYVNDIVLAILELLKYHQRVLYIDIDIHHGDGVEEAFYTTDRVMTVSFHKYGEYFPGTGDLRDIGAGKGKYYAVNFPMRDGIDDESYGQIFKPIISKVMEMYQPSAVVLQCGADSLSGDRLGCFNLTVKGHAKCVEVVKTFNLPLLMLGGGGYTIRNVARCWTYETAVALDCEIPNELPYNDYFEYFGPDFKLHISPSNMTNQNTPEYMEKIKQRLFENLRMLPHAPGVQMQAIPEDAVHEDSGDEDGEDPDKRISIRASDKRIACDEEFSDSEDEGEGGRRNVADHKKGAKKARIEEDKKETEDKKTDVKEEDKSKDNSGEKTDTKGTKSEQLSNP
Experimental: as §1, §2

[3] = target: T3, HDAC3 (Homo sapiens, UniProt O15379); assay: HDAC enzyme assay, HDAC3 (fluorescence, tripeptide substrate/trypsin); type: biochemical; details: 0.08 ng/ml enzyme, 17 μM substrate, 10 min preincubation
T3 construct: purchased BPS Biosciences
T3 sequence (O15379 whole entry): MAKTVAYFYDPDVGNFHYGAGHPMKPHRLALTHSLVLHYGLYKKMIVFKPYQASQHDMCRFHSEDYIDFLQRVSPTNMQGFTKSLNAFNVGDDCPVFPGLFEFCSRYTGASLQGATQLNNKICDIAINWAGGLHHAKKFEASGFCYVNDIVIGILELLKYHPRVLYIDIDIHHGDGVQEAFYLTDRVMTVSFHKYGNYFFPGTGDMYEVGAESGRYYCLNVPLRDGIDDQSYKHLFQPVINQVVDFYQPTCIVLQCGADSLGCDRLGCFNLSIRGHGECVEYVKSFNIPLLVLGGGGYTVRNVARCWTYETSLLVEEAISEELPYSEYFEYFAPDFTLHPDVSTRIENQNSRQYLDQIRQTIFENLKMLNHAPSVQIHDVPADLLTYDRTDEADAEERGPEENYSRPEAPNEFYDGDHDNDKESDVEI
T3 sequence (Q9Y618 395-489 partner limits assumed): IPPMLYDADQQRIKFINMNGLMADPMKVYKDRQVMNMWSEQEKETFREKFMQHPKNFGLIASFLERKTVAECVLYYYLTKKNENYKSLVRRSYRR
Experimental: as §1, §2

[4] = Pharmacokinetics in male SD rats (cassette dosing, IV and PO), plasma level by LC/MS/MS; type: in vivo; details: male SD rat; for bioavailability: dose adjusted PO AUC (5 mg/kg) to IV AUC (1 mg/kg), read-out: F % (oral bioavailability)
Experimental: Male SD rats were fasted overnight. Compounds of the invention were dissolved in dimethyl acetamide at 10 times the final concentration, then Solutol HS 15 (BASF) was added to a final concentration of 10%. Finally, 80% saline was added and vortexed to achieve a clear solution. For the IV dosing three animals were injected via the foot dorsal vein with 1 mg/kg compound. For the PO dosing 5 mg/kg of compound was delivered by oral gavage. Blood was collected via the tail vein into K2EDTA tubes at 5 minutes, 15 minutes, 30 minutes, 1 hour, 2 hours, 4 hours, 8 hours and 24 hours after dosing. The blood was centrifuged at 2000 g for 5 minutes at 4° C. to obtain plasma. The plasma was extracted with acetonitrile and the level of compound was analyzed by LC/MS/MS. The level of compound in plasma was calculated from a standard curve in rat plasma. The IV clearance (L/h/kg) and area under the curve (h*ng/mL) were calculated using WinNonLin software. The dose adjusted area under the curve for the IV and oral dosing were used to calculate the oral bioavailability.
Pharmacokinetic properties were assessed in a rat cassette dosing experiment. The IV clearance (IV Clr.) is in units of L/hr/kg. The oral maximum plasma concentration (PO Cmax) is in units of ng/ml. The oral plasma half-life (PO T½) is in units of hours. The oral area under the curve (PO AUC) is in units of hours*ng/ml. The fraction absorbed by the oral route (F %) is a percentage of the oral area under the curve to the IV area under the curve, dose adjusted.

[5] = PO 5 mg/kg oral gavage, read-out: PO AUC
[6] = PO 5 mg/kg oral gavage, read-out: PO t1/2

T1 sequence (Q13547 whole entry): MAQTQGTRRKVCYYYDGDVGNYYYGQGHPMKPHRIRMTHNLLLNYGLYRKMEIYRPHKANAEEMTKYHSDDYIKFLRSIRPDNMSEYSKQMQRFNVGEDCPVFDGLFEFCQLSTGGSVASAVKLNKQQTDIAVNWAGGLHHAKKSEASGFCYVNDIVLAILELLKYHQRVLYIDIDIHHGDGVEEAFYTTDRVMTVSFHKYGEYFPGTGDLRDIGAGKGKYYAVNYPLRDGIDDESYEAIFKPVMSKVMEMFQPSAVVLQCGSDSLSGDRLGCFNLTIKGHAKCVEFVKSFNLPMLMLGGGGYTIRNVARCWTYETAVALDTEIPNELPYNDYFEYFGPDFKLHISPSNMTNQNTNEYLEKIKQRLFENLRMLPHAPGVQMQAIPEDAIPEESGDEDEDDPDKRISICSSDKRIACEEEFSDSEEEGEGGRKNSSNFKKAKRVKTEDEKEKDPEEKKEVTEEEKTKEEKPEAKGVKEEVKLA

Row | IC50 [1] [nM] | IC50 [2] [nM] | IC50 [3] [nM] | IV clearance ([4]; IV 1 mg/kg) [mL/min/kg] | AUC ([4]; IV 1 mg/kg, read-out: IV AUC) [ng·h/mL] | half-life ([4]; IV 1 mg/kg, read-out: IV t1/2) [h] | Cmax ([4]; PO 5 mg/kg oral gavage) [ng/mL] | AUC [4, 5] [ng·h/mL] | half-life [4, 6] [h] | bioavailability [4] [%] | CL renal ([4]; IV 1 mg/kg, read-out: IV Clr.) [mL/min/kg] | Compound
1 | 885 to 895 | 1240 to 1250 | 1210 to 1220 | – | – | – | – | – | – | – | – | Nc1ccc(-c2cccs2)cc1NC(=O)c1ccc2ncn(CCN3CCOCC3)c2c1 [Compound 022]
2 | 10 to 15 | 35 to 40 | 490 to 500 | 1.67 to 16.7 | 2000 to 2100 | 5 to 10 | 700 to 750 | 8000 to 8100 | 5 to 10 | 80 to 90 | – | Nc1ccc(-c2cccs2)cc1NC(=O)c1ccc2c(c1)CC(=O)N2CC1CC1 [Compound 011]
3 | 625 to 650 | > 2000 | > 2000 | – | – | – | – | – | – | – | – | Nc1ccc(-c2ccccc2)cc1NC(=O)c1ccc2ncn(CCN3CCOCC3)c2c1 [Compound 008]
4 | 1 to 10 | 10 to 20 | 450 to 460 | – | – | – | – | – | – | – | – | Nc1ccc(-c2ccccc2)cc1NC(=O)c1ccc2c(c1)ncn2CCN1CCOCC1 [Compound 017]
5 | 25 to 30 | 20 to 25 | 85 to 95 | – | – | – | – | – | – | – | – | CNCCCOc1ccc2cc(C(=O)Nc3cc(-c4cccs4)ccc3N)cnc2c1 [Compound 026]
6 | 25 to 35 | 20 to 30 | 875 to 885 | 0.167 to 8.33 | 29800 to 30000 | 5 to 10 | 8200 to 8250 | 9450 to 9550 | 15 to 20 | 60 to 70 | – | CN1C(=O)Cc2cc(C(=O)Nc3cc(-c4ccccc4)ccc3N)ccc21 [Compound 012]
7 | 25 to 30 | 60 to 65 | 2740 to 2750 | – | – | – | – | – | – | – | – | CN1C(=O)Cc2cc(C(=O)Nc3cc(-c4ccc(O)cc4)ccc3N)ccc21 [Compound 007]
8 | 15 to 25 | 30 to 40 | 640 to 650 | – | – | – | – | – | – | – | – | CN1C(=O)Cc2cc(C(=O)Nc3cc(-c4ccco4)ccc3N)ccc21 [Compound 015]
9 | > 2000 | > 2000 | > 2000 | – | – | – | – | – | – | – | – | CN1CCN(c2ccc3cc(C(=O)Nc4cc(-c5nccn5C)ccc4N)cnc3c2)CC1 [Compound 027]
10 | 20 to 25 | 45 to 50 | 925 to 935 | 0.167 to 8.33 | 6500 to 6600 | 1 to 5 | 2450 to 2500 | 22400 | 5 to 10 | 65 to 75 | – | Nc1ccc(-c2ccccc2)cc1NC(=O)c1ccc2c(c1)CC(=O)N2CC1CC1 [Compound 002]
11 | 5 to 10 | 10 to 15 | 340 to 350 | – | 40000 to 40200 | – | 6950 to 7000 | 140000 | – | 65 to 75 | – | CN1C(=O)Cc2cc(C(=O)Nc3cc(-c4cccs4)ccc3N)ccc21 [Compound 001]
12 | 1 to 10 | 20 to 35 | 150 to 235 | 0.167 to 8.33 | 19600 to 19800 | 10 to 15 | 5550 to 5600 | 81800 to 82000 | 5 to 10 | 75 to 85 | – | Nc1ccc(-c2cccs2)cc1NC(=O)c1ccc2[nH]cnc2c1 [Compound 018]
13 | 375 to 380 | 210 to 220 | 985 to 995 | – | – | – | – | – | – | – | – | Cn1cnc2ccc(C(=O)Nc3cc(-c4cccs4)ccc3N)cc21 [Compound 010]
14 | 5 to 10 | 15 to 20 | 430 to 440 | 1.67 to 16.7 | 3700 to 3800 | 1 to 5 | 5250 to 5300 | 21400 | 1 to 5 | 110 to 120 | – | Nc1ccc(-c2cccs2)cc1NC(=O)c1ccc2c(c1)ncn2CCN1CCOCC1 [Compound 021]
15 | < 5 | 5 to 10 | 15 to 90 | – | 20 to 25 | 15 to 20 | – | – | – | – | < 8.33 | CN(C)CCNc1ccc2cc(C(=O)Nc3cc(-c4cccs4)ccc3N)ncc2c1 [Compound 024]

— patent US11858919B2, “HDAC1,2 inhibitors” (REGENACY PHARMACEUTICALS, LLC, priority 2018, dated 2024)
